# Laboratory results published in PubChem BioAssay (NCI).
#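 48-hour exposure; five concentrations; linearly interpolated endpoints. At the GI50, growth is halved. TGI: total growth inhibition.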
# Test system: EKVX NSCLC
# Assay: DTP human tumour cell line panel, 48 h
Structure (SMILES),TGI,GI50
CCOC(=O)c1cn2c(n1)sc1cccc(C)c12,> 100 µM,
O=C1CSC(c2ccc(Cl)cc2)N1c1ccc(Oc2ccc(Cl)cc2)c(Cl)c1 (configuration not stated),27.2 µM,
COC(CCC[N+](C)(C)C)CC[N+](C)(C)C (configuration not stated),> 100 µM,
CCC(C(=O)O)c1ccc(OC)cc1 (configuration not stated),> 100 µM,
Nc1nc(Cl)cc(NCC2(CO)CC(=O)C2)n1,> 100 µM,
CO/C(=N\N=C\c1ccc(C(F)(F)F)cc1)c1ccncc1,> 10 µM,
Cc1c(O)c(O)cc[n+]1C1OC(CO)C(O)C1O (configuration not stated),> 100 µM,
C=C1C(=O)O[C@@H]2C(=O)[C@@H](C)CCC/C(C)=C/CC[C@@]3(C)O[C@@H]3C[C@@H]12,> 100 µM,
CC1CCC(n2c3cnccc3c3cnc(Nc4ccc5c(n4)CCN(C(=O)CO)C5)nc32)CC1 (configuration not stated),> 100 µM,> 100 µM
O=C(NC(=O)c1ccccc1[N+](=O)[O-])Nc1ccc(Oc2ncc(Br)cn2)c(Cl)c1,,0.868 µM
COc1ccc(-c2cc(O)c3nc4ccccc4n3c2)cc1,> 100 µM,
C1CN(c2nc3c(nnc4nc(N5CCOCC5)sc43)s2)CCO1,> 100 µM,
C1=C2/CC[C@H](Sc3ccccc3)C2C2(CCCCC/1)OCCO2 (some centres not stated),> 100 µM,
CCCCC#C[I+]c1ccccc1,33.4 µM,
Nc1nc(SCCc2ccccc2)c2[nH]cnc2n1,78.8 µM,
COc1ccc2cc(NC(=O)N/N=C\c3ccc([N+](=O)[O-])cc3)ccc2c1,> 100 µM,
C[C@@H]1CC[C@]2(C(=O)O)CC[C@]3(C)C(=CC[C@@H]4[C@@]5(C)CC[C@H](O)C(C)(C)[C@@H]5CC[C@]43C)[C@@H]2[C@]1(C)O,33 µM,

Structure (SMILES),TGI,GI50
O=C1CCCSC(=O)N1Cc1ccccc1,> 100 µM,
CC(C)(C)OC(=O)N[C@H]1CCN(C2CCCCC2)C1=O,> 100 µM,
CCCN(C(=O)c1ccccc1)C(C#N)c1ccc(C(C#N)N(CCC)C(=O)c2ccccc2)cc1 (configuration not stated),> 100 µM,
N#Cc1c(-c2ccccc2)/c(=C\Nc2cccc(C(F)(F)F)c2)c(=O)n2c1nc1ccccc12,74.2 µM,
S=C1Nc2ccccc2SC1c1ccccc1 (configuration not stated),> 100 µM,
c1ccc(N=c2sc3ccccc3nc2Nc2ccccc2)cc1,> 100 µM,
O=C1/C(=C/c2ccccc2)N=C2Sc3c(nc[nH]c3=O)N12,> 100 µM,
C=CC1(C)CCC2C(=CCC3C2(C)CC(O)C(O)C3(C)COC2OC(C(=O)O)C(O)C(O)C2O)C1 (configuration not stated) (tested in a mixture with another compound),> 100 µM,
N#CC1(C#N)N[C@@H](c2ccsc2)[C@H]2C(=O)N(c3ccccc3)C(=O)[C@H]21,> 100 µM,
O=C(CCN1CCCCC1)C(=Cc1ccccc1)C(=O)CCN1CCCCC1,> 100 µM,
O=c1ccc(-c2ccccc2)n[nH]1,> 100 µM,
COc1ccc(-c2c(C#N)c(-c3ccc(C)cc3)n(NS(=O)(=O)c3ccc(C)cc3)c(=O)c2C#N)cc1,> 100 µM,
C#CCNC(CS)C(=O)O (configuration not stated),> 100 µM,
O=C1CCCc2cc3c(cc21)CC1(Cc2ccccc2C1)C3,> 100 µM,
Cc1ccc(Cl)c2[nH]c(-c3ccccc3)cc(=O)c12,45 µM,
NS(=O)(=O)c1ccc2c(c1)OCCOCCOCCOCCO2,> 100 µM,

# Test system: OVCAR-8 ovarian
# Assay: DTP human tumour cell line panel, 48 h
Structure (SMILES),TGI,GI50
CCOC(=O)c1cn2c(n1)sc1cccc(C)c12,> 100 µM,
O=C1CSC(c2ccc(Cl)cc2)N1c1ccc(Oc2ccc(Cl)cc2)c(Cl)c1 (configuration not stated),35.4 µM,
COC(CCC[N+](C)(C)C)CC[N+](C)(C)C (configuration not stated),> 100 µM,
Nc1nc(Cl)cc(NCC2(CO)CC(=O)C2)n1,> 100 µM,
CO/C(=N\N=C\c1ccc(C(F)(F)F)cc1)c1ccncc1,> 10 µM,
Cc1c(O)c(O)cc[n+]1C1OC(CO)C(O)C1O (configuration not stated),> 100 µM,
C=C1C(=O)O[C@@H]2C(=O)[C@@H](C)CCC/C(C)=C/CC[C@@]3(C)O[C@@H]3C[C@@H]12,> 100 µM,
O=C(NC(=O)c1ccccc1[N+](=O)[O-])Nc1ccc(Oc2ncc(Br)cn2)c(Cl)c1,0.0736 µM,
COc1ccc(-c2cc(O)c3nc4ccccc4n3c2)cc1,> 100 µM,
ClCCN1CCC2(CC1)SSC1(CCN(CCCl)CC1)S2,> 100 µM,
C1CN(c2nc3c(nnc4nc(N5CCOCC5)sc43)s2)CCO1,> 100 µM,
C1=C2/CC[C@H](Sc3ccccc3)C2C2(CCCCC/1)OCCO2 (some centres not stated),> 100 µM,
CCCCC#C[I+]c1ccccc1,32.5 µM,
Nc1nc(SCCc2ccccc2)c2[nH]cnc2n1,> 100 µM,
Cc1ccc(-c2n[nH]c(=O)n2N2C(=O)c3ccccc3C2=O)cc1,> 100 µM,
COc1ccc(C2CC(c3c(O)ccc4ccccc34)=NN2C(C)=O)cc1OC (configuration not stated),> 100 µM,
COc1ccc2cc(NC(=O)N/N=C\c3ccc([N+](=O)[O-])cc3)ccc2c1,87.3 µM,
C[C@@H]1CC[C@]2(C(=O)O)CC[C@]3(C)C(=CC[C@@H]4[C@@]5(C)CC[C@H](O)C(C)(C)[C@@H]5CC[C@]43C)[C@@H]2[C@]1(C)O,37.3 µM,
O=C1CCCSC(=O)N1Cc1ccccc1,> 100 µM,

Structure (SMILES),TGI,GI50
CC(C)(C)OC(=O)N[C@H]1CCN(C2CCCCC2)C1=O,> 100 µM,
CCCN(C(=O)c1ccccc1)C(C#N)c1ccc(C(C#N)N(CCC)C(=O)c2ccccc2)cc1 (configuration not stated),> 100 µM,
N#Cc1c(-c2ccccc2)/c(=C\Nc2cccc(C(F)(F)F)c2)c(=O)n2c1nc1ccccc12,51.5 µM,
S=C1Nc2ccccc2SC1c1ccccc1 (configuration not stated),> 100 µM,
c1ccc(N=c2sc3ccccc3nc2Nc2ccccc2)cc1,> 100 µM,
O=C1/C(=C/c2ccccc2)N=C2Sc3c(nc[nH]c3=O)N12,> 100 µM,
C=CC1(C)CCC2C(=CCC3C2(C)CC(O)C(O)C3(C)COC2OC(C(=O)O)C(O)C(O)C2O)C1 (configuration not stated) (tested in a mixture with another compound),> 100 µM,
N#CC1(C#N)N[C@@H](c2ccsc2)[C@H]2C(=O)N(c3ccccc3)C(=O)[C@H]21,> 100 µM,
O=C(CCN1CCCCC1)C(=Cc1ccccc1)C(=O)CCN1CCCCC1,> 58.1 µM,2.56 µM
O=c1ccc(-c2ccccc2)n[nH]1,> 100 µM,
CC(C)=CCc1c2c(c3occ(-c4ccc(O)cc4)c(=O)c3c1O)CC(C(C)(C)O)O2 (configuration not stated),36.2 µM,
COc1ccc(-c2c(C#N)c(-c3ccc(C)cc3)n(NS(=O)(=O)c3ccc(C)cc3)c(=O)c2C#N)cc1,> 100 µM,
O=[N+]([O-])c1ccc2c(c1)c(OCc1ccccc1)nn2Cc1ccccc1,> 100 µM,
C#CCNC(CS)C(=O)O (configuration not stated),> 100 µM,
O=C1CCCc2cc3c(cc21)CC1(Cc2ccccc2C1)C3,43.7 µM,
Cc1ccc(Cl)c2[nH]c(-c3ccccc3)cc(=O)c12,> 100 µM,
COc1ccc2c(c1)/C(=C/CCN(C)C)c1ccccc1S2,> 100 µM,
NS(=O)(=O)c1ccc2c(c1)OCCOCCOCCOCCO2,> 100 µM,
CCOC(=O)/C=C/CC(C)(C)CCOC(C)=O,> 10 µM,

# Test system: SF-539 CNS
# Assay: DTP human tumour cell line panel, 48 h
row,Structure (SMILES),TGI
1,CCOC(=O)c1cn2c(n1)sc1cccc(C)c12,> 100 µM
2,O=C1CSC(c2ccc(Cl)cc2)N1c1ccc(Oc2ccc(Cl)cc2)c(Cl)c1 (configuration not stated),30.4 µM
3,COC(CCC[N+](C)(C)C)CC[N+](C)(C)C (configuration not stated),> 100 µM
4,CCC(C(=O)O)c1ccc(OC)cc1 (configuration not stated),> 100 µM
5,Nc1nc(Cl)cc(NCC2(CO)CC(=O)C2)n1,> 100 µM
6,C=C1C(=O)O[C@@H]2C(=O)[C@@H](C)CCC/C(C)=C/CC[C@@]3(C)O[C@@H]3C[C@@H]12,60.6 µM
7,O=C(NC(=O)c1ccccc1[N+](=O)[O-])Nc1ccc(Oc2ncc(Br)cn2)c(Cl)c1,0.0524 µM
8,COc1ccc(-c2cc(O)c3nc4ccccc4n3c2)cc1,> 100 µM
9,ClCCN1CCC2(CC1)SSC1(CCN(CCCl)CC1)S2,56.3 µM
10,C1CN(c2nc3c(nnc4nc(N5CCOCC5)sc43)s2)CCO1,> 100 µM
11,C1=C2/CC[C@H](Sc3ccccc3)C2C2(CCCCC/1)OCCO2 (some centres not stated),> 100 µM
12,CCCCC#C[I+]c1ccccc1,38.8 µM
13,Cc1ccc(-c2n[nH]c(=O)n2N2C(=O)c3ccccc3C2=O)cc1,> 100 µM
14,COc1ccc(C2CC(c3c(O)ccc4ccccc34)=NN2C(C)=O)cc1OC (configuration not stated),48.9 µM
15,C[C@@H]1CC[C@]2(C(=O)O)CC[C@]3(C)C(=CC[C@@H]4[C@@]5(C)CC[C@H](O)C(C)(C)[C@@H]5CC[C@]43C)[C@@H]2[C@]1(C)O,12 µM
16,O=C1CCCSC(=O)N1Cc1ccccc1,> 100 µM
17,CC(C)(C)OC(=O)N[C@H]1CCN(C2CCCCC2)C1=O,> 100 µM
18,CCCN(C(=O)c1ccccc1)C(C#N)c1ccc(C(C#N)N(CCC)C(=O)c2ccccc2)cc1 (configuration not stated),87.6 µM
19,N#Cc1c(-c2ccccc2)/c(=C\Nc2cccc(C(F)(F)F)c2)c(=O)n2c1nc1ccccc12,37.8 µM
20,c1ccc(N=c2sc3ccccc3nc2Nc2ccccc2)cc1,> 100 µM
21,O=C1/C(=C/c2ccccc2)N=C2Sc3c(nc[nH]c3=O)N12,> 100 µM
22,C=CC1(C)CCC2C(=CCC3C2(C)CC(O)C(O)C3(C)COC2OC(C(=O)O)C(O)C(O)C2O)C1 (configuration not stated) (tested in a mixture with another compound),> 100 µM
23,O=C(CCN1CCCCC1)C(=Cc1ccccc1)C(=O)CCN1CCCCC1,> 100 µM
24,CC(C)=CCc1c2c(c3occ(-c4ccc(O)cc4)c(=O)c3c1O)CC(C(C)(C)O)O2 (configuration not stated),41.1 µM
25,COc1ccc(-c2c(C#N)c(-c3ccc(C)cc3)n(NS(=O)(=O)c3ccc(C)cc3)c(=O)c2C#N)cc1,> 100 µM
26,O=[N+]([O-])c1ccc2c(c1)c(OCc1ccccc1)nn2Cc1ccccc1,> 100 µM
27,O=C1CCCc2cc3c(cc21)CC1(Cc2ccccc2C1)C3,18.7 µM
28,NS(=O)(=O)c1ccc2c(c1)OCCOCCOCCOCCO2,> 100 µM
29,CCOC(=O)/C=C/CC(C)(C)CCOC(C)=O,> 10 µM

# Test system: IGROV1 ovarian
# Assay: DTP human tumour cell line panel, 48 h
row,Structure (SMILES),TGI
1,CCOC(=O)c1cn2c(n1)sc1cccc(C)c12,> 100 µM
2,O=C1CSC(c2ccc(Cl)cc2)N1c1ccc(Oc2ccc(Cl)cc2)c(Cl)c1 (configuration not stated),31.2 µM
3,COC(CCC[N+](C)(C)C)CC[N+](C)(C)C (configuration not stated),> 100 µM
4,CCC(C(=O)O)c1ccc(OC)cc1 (configuration not stated),> 100 µM
5,Nc1nc(Cl)cc(NCC2(CO)CC(=O)C2)n1,> 100 µM
